# Results from patent US20210392882A1, “METHODS AND COMPOSITIONS FOR IMPROVED INSECT REPELLENCY” (Board of Trustees of Michigan State University, priority 2020, published 2021).
# What was measured:
# Ae. aegypti mosquitoes = experiment: Hand-in-cage spatial repellency assay; assay type: in vivo, Aedes aegypti; conditions: for repellency in AaOr31−/− mosquitoes compared to wild-type mosquitoes: ROCK wild-type; for effect of (E)-β-farnesene on repellency of the compound: EBF 4 ppm, P-I 1000 ppm, P-II 1000 ppm, (−)-borneol 100 ppm; for repellency in pyrethrum/pyrethroid resistant KDR:ROCK mosquitoes compared to ROCK: FIG. 4G
# From the text: The hand-in-cage assay employed was similar to the hand-in-glove assay described by Boyle et al. (bioRxiv, 060178 (2016)). The setup for the hand-in-cage assay includes a 30 cm×30 cm×30 cm mosquito cage (BioQuip, Rancho Dominguea, Calif.), with a mounted digital camera and a human hand in a modified glove with a screened window. The digital camera (e-con Systems Inc, San Jose, Calif., model: e-CAM51A) for video recording is mounted on the cage top and connected to a laptop computer. A nitrile rubber glove (Ansell Protective Products, Coshoton, Ohio, part number: 37-155) was cut on the back side of the glove to create a window (6 cm×5 cm) (FIG. 1A). A piece of magnetic frame (slightly larger than the dimension of the window) was glued onto the cut window which was used as a base for stacking more magnetic window frames (FIG. 1A; further explained below). One piece of test compound-treated polyester netting (Shason Textile Inc., part number: WS-B532-111, white; slightly larger than the dimension of the window) was placed on this fixed magnetic frame, which was ˜3.0 mm above the glove. The second piece of the netting was untreated and placed ˜6.0 mm above the treated net using a stack of four magnetic frames. The stacked magnetic frames were further secured with a binder clip. The stacking creates sufficient space between the treated net and the untreated net so that mosquitoes that land on the open window were not able to contact treated net, or to contact and pierce skin of a hand in the glove. The hand makes no contact with the treated net.
# The assay was run in a room with humidity between around 50% and temperature between 27° C. to 30° C. Twenty-four hours before an assay, four to nine days-old females (about 40, mated, non-blood fed) were transferred into a mosquito cage. The cage was kept in an incubator where mosquitoes were provided only with water in a cotton ball placed on the top of the cage. Immediately before the assay, one researcher treated pieces of netting with 500 μl test compound dissolved in acetone in a glass Petri dish in an adjacent room. Acetone served a control. After letting acetone evaporate (˜7 min), the researcher assembled and put on a modified glove. In the meantime, a second researcher or a lab assistant transferred the prepared cage from the incubator to a bench in the assay room. Both personnel avoided use of any hand lotions and cosmetic products before an assay and wore white lab coats and gloves during the assay. The hand with the modified glove was introduced into the cage to initiate the assay. Mosquitoes landing on the test window was recorded by the digital camera for five minutes. The number of mosquitoes landing during the second to fifth minutes was counted and recorded. For each cage, solvent (acetone) control was tested first and then followed with a treatment. Data from any cage that gave a low landing number in a control trial were discarded. The time interval of assays between control and treatment was at least 1.5 hours, allowing the mosquitoes to fully recover and residual vapors from experiments to be ventilated out of the room. Percentage repellency was determined for each cage using the following equation:
# Percentage repellency=[1−(cumulative number of mosquitoes landed on the window of treatment/cumulative number of mosquitoes landed on the window of solvent treatment)]×100).
# The spatial repellency of pyrethrum was examined using a hand-in-cage assay (Ogoma et al. PLoS neglected tropical diseases 11, e0005455 (2017)). In this behavioral assay, mosquitoes were attracted to a human hand in a modified glove (FIG. 1A) with a screened window on the back of the glove. The mosquitoes landed on a piece of control mesh secured on the top of the window. Between the control mesh and the hand is another mesh treated with a test compound, with which mosquitoes cannot make direct contact (FIG. 1A).
# [1] = test system: sbt-1 sensilla (sbt-1A and sbt-1B neurons); experiment: Single sensillum recording (SSR) of antennal sbt-1 sensilla; assay type: cell-based, Aedes aegypti; conditions: for response of sbt-1A neurons in AaOr31−/− mosquitoes: AaOr31 knockout vs ROCK, 10^−2 dilution, FIG. 3A; for response of sbt-1A neuron / response of sbt-1B neuron: wild-type ROCK; for response of sbt-1A neuron: pyrethrum and EBF at 10^−2 dilution; for response of sbt-1B neurons in AaOr31−/− mosquitoes: AaOr31 knockout, specificity control; for response of sbt-1B neuron: pyrethrum at 10^−2
# Protocol: (§1) Single sensilla recording was conducted as described in Liu et al. J Insect Physiol 59, 1169-1177 (2013). Female mosquitoes 4 days after eclosion were anaesthetized (2-3 min on ice) and mounted on a microscope slide (76×26 mm). An antenna was fixed using a double-sided tape to a cover slip resting on a small ball of dental wax to facilitate manipulation. The cover slip was placed at an appropriate angle to the mosquito head. Once mounted, the specimen was placed under a microscope (Nikon SMA645, Japan) and the antenna viewed at a high magnification (1000×). Two tungsten microelectrodes were sharpened in 10% KNO2 at 2-10 V. The reference electrode, which was connected to ground, was inserted into the compound eye of the mosquito and the other was connected to the preamplifier (10×, Syntech, Kirchzarten, Germany) and inserted into the shaft of an olfactory sensillum to complete the electrical circuit to extracellularly record olfactory receptor neuron potentials (Den Otter et al., Journal of Insect Physiology 26, 465-472 (1980)). Controlled manipulation of the electrodes was performed using a micromanipulator (Burleigh PCS-6000, CA). The preamplifier was connected to an analog-to-digital signal converter (IDAC-4, Syntech, Germany), which in turn was connected to a computer for signal recording and visualization. The activity of co-located olfactory receptor neurons in each sensillum was assessed based on the differences in spike amplitude. The large spike amplitude was designated as cell A and the olfactory receptor neuron with the small spike amplitude was designated cell B (Ghaninia et al. Eur J Neurosci 26, 1611-1623 (2007)). Signals were recorded for 10 seconds starting 1 second before stimulation, and the action potentials were counted off-line over a 500-ms period before and after stimulation. The spontaneous firing rates observed in the preceding 500 milliseconds (ms) were subtracted from the total spike rates observed during the 500-ms stimulation, and counts were recorded in units of spikes/second.
# (§2) Eighteen compounds besides pyrethrum from different chemical classes were selected for functional classification of olfactory sensilla with various morphological shapes (Extended Data FIG. 2). Each compound was diluted in dimethyl sulfoxide (DMSO) to a stock solution with a concentration of 100 μg/μl. Subsequently, a series of 10-fold dilutions were made from each of the stock solutions for each compound tested. For each dilution, a 10 μl portion was dispersed onto a filter paper strip (4×10 mm), which was then inserted into a Pasteur pipette to create the stimulus cartridge. A sample containing the solvent alone served as control. The airflow across the antennae was maintained constant at a 20 ml/second throughout the experiment. Purified and humidified air was delivered to the preparation through a glass tube (10-mm inner diameter) perforated by a small hole 10 cm away from the end of the tube, into which the tip of the Pasteur pipette could be inserted. The stimulus was delivered to the sensilla by inserting the tip of the stimulus cartridge into this hole and diverting a portion of the air stream (0.5 l/min) to flow through the stimulus cartridge for 500 ms using a stimulus controller (Syntech, Germany). The distance between the end of the glass tube and the antennae was ≤1 cm. The number of spikes/second was obtained by averaging the results for each sensillum/compound combination.
# (§3) To identify which mosquito olfactory receptor neuron(s) responds to pyrethrum, single sensillum recordings (SSR) were performed of Ae. aegypti antennal olfactory sensilla in response to a panel of odorants (FIG. 2C-2L), most of which are plant-derived mosquito repellents, such as pyrethrum, (±)-citronellal, geranyl acetate and (−)-borneol. Three responsive sst sensilla were identified, sst1-3, and six responsive sbt sensilla, sbt1-6, based on their response profiles to the odorants in the panel (FIG. 2B, 2D-2L).
# [2] = test system: sst-1 sensilla (sst-1A and sst-1B neurons); experiment: Single sensillum recording (SSR) of antennal sst-1 sensilla; assay type: cell-based, Aedes aegypti; conditions: for response of sst-1A neuron: wild-type ROCK, pyrethrum at 10^−2; for response of sst-1A neurons: ROCK, 10^−1 dilution, FIG. 4A
# Protocol: as §1, §2, §3
# AgOr31 = experiment: SSR of Drosophila ab3A empty neurons expressing AgOr31; assay type: cell-based, Anopheles gambiae; conditions: 10^−2 dilution
# From the text: The method of Carey et al. (Nature 464, 66-71 (2010)) was used for heterologous expression of AgORs in the ab3 empty neurons. The Gal4 line (w; Cyo/Δhalo; Or22a-Gal4) was kindly provided by John Carlson (Yale Univ.), and 50 UAS-AgOr lines were obtained from the Bloomington Drosophila stock center.
# Having identified sbt-1 and sst-1 as primary olfactory receptor neurons that are responsive to pyrethrum, experiments were designed to identify the specific odorant receptors (Ors) that are involved in these responses. An indexed library of An. gambiae Ors (AgOrs) (Carey et al., Nature 464, 66-71 (2010)) was used. Each of the 50 AgOrs was expressed in the “ab3 empty neuron” system of Drosophila melanogaster, in which the endogenous odorant receptor gene, Or22a, in the ab3 sensillum was deleted (FIG. 2N-2O, FIG. 3A).
# Single sensillum recordings (SSR) were then examined from the resulting chimera ab3 sensillum that expressed the individual AgOrs in the D. melanogaster antenna when these flies were exposed to the same panel of odorants used in the analysis of Ae. aegypti sensilla. […] The odorant response profile of the sbt-1A neuron matches remarkably well with that of AgOr31 (FIGS. 2C, 2O).
# [3] = 10^−3 dilution, Orlando (wild-type), FIG. 4B
smiles,measurement,setting,value
CC(=O)OC/C=C(\C)CCC=C(C)C [geranyl acetate],repellency in AaOr31−/− mosquitoes compared to wild-type mosquitoes,"Ae. aegypti mosquitoes; 10^−2 dilution, FIG. 3B",significantly reduced
same,response of sbt-1A neurons in AaOr31−/− mosquitoes,[1],completely abolished
same,response of sbt-1A neuron,[1],strong excitatory responses
CC12CCC(CC1)C(C)(C)O2 [eucalyptol],response of sst-1A neuron,[2],activated
CC12CCC(CC1=O)C2(C)C (centres unmarked) [camphor],response of sst-1A neuron,[2],activated
CC(C)=CCCC(C)CC=O (racemic) [(±)-citronellal],repellency in AaOr31−/− mosquitoes compared to wild-type mosquitoes,"Ae. aegypti mosquitoes; 10^−2 dilution, FIG. 3B",significantly reduced
same,response of sbt-1A neurons in AaOr31−/− mosquitoes,[1],completely abolished
same,response of sbt-1A neuron,[1],strong excitatory responses
same,response of sst-1A neuron,[2],activated
Cc1ccccc1 [toluene],response of sbt-1B neurons in AaOr31−/− mosquitoes,[1],remained intact
same,response of sbt-1B neuron,[1],highly sensitive
C=CC(=C)CC/C=C(\C)CCC=C(C)C [(E)-β-farnesene],repellency alone,"Ae. aegypti mosquitoes; 4 ppm and 10 ppm, ROCK or AaOr31−/− mosquitoes, FIG. 4H",did not elicit repellency
same,repellency in AaOr31−/− mosquitoes compared to wild-type mosquitoes,"Ae. aegypti mosquitoes; 10^−2 dilution, FIG. 3B",significantly reduced
same,spatial repellency,"Ae. aegypti mosquitoes; 10^−2 dilution, ROCK, FIG. 3B",elicited spatial repellency
same,repellency alone,"Ae. aegypti mosquitoes; 1000 ppm or lower concentrations, FIG. 4H",no repellency
same,repellency enhancement by (E)-β-farnesene in AaOr31−/− mosquitoes,"Ae. aegypti mosquitoes; EBF 4 ppm with P-II 1000 ppm, FIG. 4D",abolished
same,repellency alone,Ae. aegypti mosquitoes; at 4 ppm or below,did not exhibit repellency
same,response of sbt-1A neurons in AaOr31−/− mosquitoes,[1],completely abolished
same,response of sbt-1A neuron,[1],activated
same,activation of AgOr31,AgOr31,activated
C=C/C=C\CC1=C(C)[C@@H](OC(=O)[C@@H]2[C@@H](C=C(C)C)C2(C)C)CC1=O [pyrethrin I],repellency alone,"Ae. aegypti mosquitoes; 1 ppm, ROCK, FIG. 4E",did not elicit repellency
same,repellency in orco−/− mosquitoes compared to Orlando,"Ae. aegypti mosquitoes; 10^−3 dilution, FIG. 4B",significantly reduced
same,spatial repellency,Ae. aegypti mosquitoes; [3],elicited spatial repellency
same,effect of (E)-β-farnesene on repellency of the compound,"Ae. aegypti mosquitoes; ROCK, FIG. 4D",synergized
same,repellency in pyrethrum/pyrethroid resistant KDR:ROCK mosquitoes compared to ROCK,Ae. aegypti mosquitoes,reduced
same,synergism with (E)-β-farnesene in repellency,"Ae. aegypti mosquitoes; pyrethrin I 1 ppm, EBF 10 ppm, ROCK, FIG. 4E",still evident
same,response of sst-1A neurons,[2],activated
CCCCCCCCCCCCCCCC(=O)OCC [ethyl palmitate],response of sbt-1A neuron,[1],None
same,activation of AgOr31,AgOr31,None
CCCCC/C=C\C/C=C\CCCCCCCC(=O)OCC [ethyl linoleate],response of sbt-1A neuron,[1],None
same,activation of AgOr31,AgOr31,None
c1ccc2[nH]ccc2c1 [indole],response of sbt-1B neurons in AaOr31−/− mosquitoes,[1],remained intact
same,response of sbt-1B neuron,[1],highly sensitive
C=C/C=C\CC1=C(C)[C@@H](OC(=O)[C@@H]2[C@@H](/C=C(\C)C(=O)OC)C2(C)C)CC1=O [pyrethrin II],repellency in orco−/− mosquitoes compared to Orlando,"Ae. aegypti mosquitoes; 10^−3 dilution, FIG. 4B",significantly reduced
same,spatial repellency,Ae. aegypti mosquitoes; [3],elicited spatial repellency
same,effect of (E)-β-farnesene on repellency of the compound,"Ae. aegypti mosquitoes; ROCK, FIG. 4D",synergized
same,repellency in pyrethrum/pyrethroid resistant KDR:ROCK mosquitoes compared to ROCK,Ae. aegypti mosquitoes,reduced
same,response of sst-1A neurons,[2],activated
